Like-named read-outs stand apart in the source and are kept apart here.
Assays:
German cockroach = assay: Example 1: German cockroach mortality, spray of bifenthrin and imidacloprid combinations; format: in vivo
Description: (§1) The following examples further illustrate the present invention, but, of course, should not be construed as in any way limiting its scope. The examples set forth certain biological data illustrating the efficacy of the compositions of the present invention in controlling general household pests. Each example embodies a separate test wherein the pests were randomly selected from a population at a random age. As a result, from example to example, the ages of the pests can be very different. This age difference potentially translates to different baselines for each example. Therefore, data should only be compared within the example and not from example to example due to the differences in age of the pests from example to example. Unless otherwise indicated, all parts, percentages, and the like are by weight. The spray chamber used in the examples was approximately 76 inches tall, 73 inches long and 31 inches deep with an adjustable shelf (approximately 22 inches deep) and a movable spray nozzle. The spray chambers were calibrated to deliver a volume of approximately 1 gallon of liquid per 1000 square feet of area at about 14 pounds per square inch of pressure. A DeVilbiss hand held sprayer (Atomizer model 152) manufactured by DeVilbiss located in Glendale Heights, Ill. was used in testing house flies and mosquitoes. The DeVilbiss was used to apply approximately 3-5 milliliters of product at about 10 pounds per square inch.
The compositions of the present invention were tested for German cockroach activity in the following manner:
(§2) Test compositions made up of TALSTARONE® MULTI-INSECTICIDE and a wettable powder of imidacloprid (MERIT) in distilled water were prepared that provided appropriate rates of application of combinations of bifenthrin and imidacloprid, as well as bifenthrin and imidacloprid alone.
The spray chamber was then calibrated to deliver the treatment solution at the desired volume and pressure over the desired area on the chamber shelf. Spray chamber shelf height was adjusted to approximately 18 inches from the spray tip. The shelf was then covered with aluminum foil and the center of the shelf from front-to-back and end-to-end was determined. A desired number of 4.0″ sieve circles were marked on the aluminum foil with a permanent marker. The inside of a desired number of PVC rings were coated with a petroleum jelly/mineral oil mixture (1:2 ratio). The PVC rings were place on the sieve circles. 10 male German cockroaches were placed inside each PVC ring. The sprayer was activated and the test compound was applied to each PVC ring interior. German cockroach mortality was measured.

Red Imported Fire Ant [1] = assay: Example 16: red imported fire ant knockdown and mortality, bifenthrin and clothianidin; format: in vivo, Solenopsis invicta
Description: as §1
(§3) The compositions of the present invention were tested for red imported fire ant activity in the following manner:
(§4) Test compositions made up of TALSTARONE® MULTI-INSECTICIDE and a 16% a.i. water dispersible granular of clothianidin in distilled water were prepared that provided appropriate rates of application of combinations of bifenthrin and clothianidin, as well as bifenthrin and clothianidin alone.
(§5) The spray chamber was then calibrated to deliver the treatment solution at the desired volume and pressure over the desired area on the chamber shelf. Spray chamber shelf height was adjusted to approximately 18 inches from the spray tip. The shelf was then covered with aluminum foil and the center of the shelf from front-to-back and end-to-end was determined. The red imported fire ants to be treated were collected and placed in screened 16 oz paper cups. The paper cups were placed onto the aluminum foil on the spray chamber shelf. The sprayer was activated and the test compound was applied to each paper cup interior. Red imported fire ant knockdown and mortality were measured.

Yellow Fever Mosquito = format: in vivo
Description: as §1
The compositions of the present invention were tested for Yellow Fever Mosquito activity in the following manner:
as §4
(§6) A DeVilbiss hand held sprayer was used to deliver the treatment solution at the desired volume and pressure. The Yellow Fever Mosquitoes to be treated were collected and placed in screened 16 oz paper cups. The hand held sprayer was activated and the test compound was applied to each paper cup interior. Yellow Fever Mosquito knockdown and mortality were measured.

House Fly = assay: Example 11: house fly knockdown and mortality, bifenthrin and thiamethoxam; format: in vivo
Description: as §1
The compositions of the present invention were tested for house fly activity in the following manner:
Test compositions made up of TALSTARONE® MULTI-INSECTICIDE and a water dispersible granular of thiamethoxam (CENTRIC) in distilled water were prepared that provided appropriate rates of application of combinations of bifenthrin and thiamethoxam, as well as bifenthrin and thiamethoxam alone.
as §6, with “house flies” for “Yellow Fever Mosquitoes”, “House fly” for “Yellow Fever Mosquito”

Red Imported Fire Ant [2] = assay: Example 5: red imported fire ant knockdown and mortality, bifenthrin and imidacloprid; format: in vivo, Solenopsis invicta
Description: as §1, §3, §2, §5

[3] = rate of appln. 10 PPM (0.001% by weight)
[4] = rate of appln. 50 PPM (0.005% by weight)

In the case of Cc1c(COC(=O)[C@@H]2[C@H](/C=C(\Cl)C(F)(F)F)C2(C)C)cccc1-c1ccccc1 (racemic) [A, 2-methylbiphenyl-3-ylmethyl (Z)-(1RS)-cis-3-(2-chloro-3,3,3-trifluoroprop-1-enyl)-2,2-dimethylcyclopropanecarboxylate], the “Mortality Rate @ 60 minutes” value (German cockroach; 10 PPM, 0.001% by weight) is reported as 3%, the “Mortality Rate @ 120 minutes” value (German cockroach; 10 PPM, 0.001% by weight) is reported as 33% and the “Mortality Rate @ 1 day” value (German cockroach; 10 PPM, 0.001% by weight) is reported as 33%. For the same compound, the “Mortality Rate @ 2 days” value (German cockroach; 10 PPM, 0.001% by weight) was 60%, the “Mortality Rate @ 60 minutes” value (German cockroach; 50 PPM, 0.005% by weight) was 30% and the “Mortality Rate @ 120 minutes” value (German cockroach; 50 PPM, 0.005% by weight) was 48%. The “Mortality Rate @ 1 day” value (German cockroach; 50 PPM, 0.005% by weight) was 58%, the “Mortality Rate @ 2 days” value (German cockroach; 50 PPM, 0.005% by weight) was 100% and the “Knockdown Rate @ 5 minute” value (Red Imported Fire Ant [1]; [3]) was 30%. For the same compound, the “Knockdown Rate @ 10 minute” value (Red Imported Fire Ant [1]; [3]) was 93%, the “Knockdown Rate @ 15 minute” value (Red Imported Fire Ant [1]; [3]) was 95% and the “Knockdown Rate @ 30 minutes” value (Red Imported Fire Ant [1]; [3]) was 100%. The “Mortality Rate @ 60 minutes” value (Red Imported Fire Ant [1]; [3]) was 65%, the “Mortality Rate @ 120 minutes” value (Red Imported Fire Ant [1]; [3]) was 100% and the “Mortality Rate @ 4 hours” value (Red Imported Fire Ant [1]; [3]) was 100%. The “Knockdown Rate @ 5 minute” value (Red Imported Fire Ant [1]; [4]) was 10%, the “Knockdown Rate @ 10 minute” value (Red Imported Fire Ant [1]; [4]) was 70% and the “Knockdown Rate @ 15 minute” value (Red Imported Fire Ant [1]; [4]) was 95%. The “Knockdown Rate @ 30 minutes” value (Red Imported Fire Ant [1]; [4]) was 100%, the “Mortality Rate @ 60 minutes” value (Red Imported Fire Ant [1]; [4]) was 100% and the “Mortality Rate @ 120 minutes” value (Red Imported Fire Ant [1]; [4]) was 100%. The “Mortality Rate @ 4 hours” value (Red Imported Fire Ant [1]; [4]) was 100%, the “Knockdown Rate @ 15 minute” value (Yellow Fever Mosquito; [3]) was 27% and the “Knockdown Rate @ 30 minute” value (Yellow Fever Mosquito; [3]) was 97%. The “Mortality Rate @ 45 minutes” value (Yellow Fever Mosquito; [3]) was 100%, the “Mortality Rate @ 60 minutes” value (Yellow Fever Mosquito; [3]) was 100% and the “Mortality Rate @ 120 minutes” value (Yellow Fever Mosquito; [3]) was 100%. For the same compound, the “Mortality Rate @ 180 minute” value (Yellow Fever Mosquito; [3]) was 100%, the “Mortality Rate @ 4 hours” value (Yellow Fever Mosquito; [3]) was 100% and the “Mortality Rate @ 1 day” value (Yellow Fever Mosquito; [3]) was 100%. The “Knockdown Rate @ 15 minute” value (Yellow Fever Mosquito; [4]) was 90%, the “Knockdown Rate @ 30 minute” value (Yellow Fever Mosquito; [4]) was 100% and the “Mortality Rate @ 45 minutes” value (Yellow Fever Mosquito; [4]) was 100%. For the same compound, the “Mortality Rate @ 60 minutes” value (Yellow Fever Mosquito; [4]) was 100%, the “Mortality Rate @ 120 minutes” value (Yellow Fever Mosquito; [4]) was 100% and the “Mortality Rate @ 180 minute” value (Yellow Fever Mosquito; [4]) was 100%. For the same compound, the “Mortality Rate @ 4 hours” value (Yellow Fever Mosquito; [4]) was 100%, the “Mortality Rate @ 1 day” value (Yellow Fever Mosquito; [4]) was 100% and the “Knockdown Rate @ 15 minute” value (House Fly; A 10 PPM, 0.001% by weight) was 0%. The “Knockdown Rate @ 30 minute” value (House Fly; A 10 PPM, 0.001% by weight) was 0%, the “Knockdown Rate @ 45 minutes” value (House Fly; A 10 PPM, 0.001% by weight) was 6% and the “Knockdown Rate @ 60 minutes” value (House Fly; A 10 PPM, 0.001% by weight) was 19%. For the same compound, the “Knockdown Rate @ 120 minutes” value (House Fly; A 10 PPM, 0.001% by weight) was 19%, the “Knockdown Rate @ 4 hours” value (House Fly; A 10 PPM, 0.001% by weight) was 48% and the “Mortality Rate @ 1 day” value (House Fly; A 10 PPM, 0.001% by weight) was 3%. The “Knockdown Rate @ 15 minute” value (House Fly; A 50 PPM, 0.005% by weight) was 0%, the “Knockdown Rate @ 30 minute” value (House Fly; A 50 PPM, 0.005% by weight) was 19% and the “Knockdown Rate @ 45 minutes” value (House Fly; A 50 PPM, 0.005% by weight) was 47%. For the same compound, the “Knockdown Rate @ 60 minutes” value (House Fly; A 50 PPM, 0.005% by weight) was 59%, the “Knockdown Rate @ 120 minutes” value (House Fly; A 50 PPM, 0.005% by weight) was 63% and the “Knockdown Rate @ 4 hours” value (House Fly; A 50 PPM, 0.005% by weight) was 100%. The “Mortality Rate @ 1 day” value (House Fly; A 50 PPM, 0.005% by weight) was 63%, the “Knockdown Rate @ 5 minute” value (Red Imported Fire Ant [2]; 10 PPM, 0.001% by weight) was 30% and the “Knockdown Rate @ 10 minute” value (Red Imported Fire Ant [2]; 10 PPM, 0.001% by weight) was 93%. For the same compound, the “Knockdown Rate @ 15 minute” value (Red Imported Fire Ant [2]; 10 PPM, 0.001% by weight) was 95%, the “Knockdown Rate @ 30 minutes” value (Red Imported Fire Ant [2]; 10 PPM, 0.001% by weight) was 100% and the “Mortality Rate @ 60 minutes” value (Red Imported Fire Ant [2]; 10 PPM, 0.001% by weight) was 65%. For the same compound, the “Mortality Rate @ 120 minutes” value (Red Imported Fire Ant [2]; 10 PPM, 0.001% by weight) was 100%, the “Mortality Rate @ 4 hours” value (Red Imported Fire Ant [2]; 10 PPM, 0.001% by weight) was 100% and the “Mortality Rate @ 1 day” value (Red Imported Fire Ant [2]; 10 PPM, 0.001% by weight) was 100%. The “Knockdown Rate @ 5 minute” value (Red Imported Fire Ant [2]; 50 PPM, 0.005% by weight) was 10%, the “Knockdown Rate @ 10 minute” value (Red Imported Fire Ant [2]; 50 PPM, 0.005% by weight) was 70% and the “Knockdown Rate @ 15 minute” value (Red Imported Fire Ant [2]; 50 PPM, 0.005% by weight) was 95%. The “Knockdown Rate @ 30 minutes” value (Red Imported Fire Ant [2]; 50 PPM, 0.005% by weight) was 100%, the “Mortality Rate @ 60 minutes” value (Red Imported Fire Ant [2]; 50 PPM, 0.005% by weight) was 100% and the “Mortality Rate @ 120 minutes” value (Red Imported Fire Ant [2]; 50 PPM, 0.005% by weight) was 100%. The “Mortality Rate @ 4 hours” value (Red Imported Fire Ant [2]; 50 PPM, 0.005% by weight) was 100% and the “Mortality Rate @ 1 day” value (Red Imported Fire Ant [2]; 50 PPM, 0.005% by weight) was 100%.
